Assay results: patent US10898548B2, “Modulators of protein tyrosine phosphatase and uses thereof” (LEUVAS THERAPEUTICS, priority 2015, dated 2021)
Where two headings read alike, the source gives them in different places.

How the values were obtained:
[1] = tested on: U87 GBM cells; test: MTT survival assay, U87 GBM cells; format: cell-based
Method: (§1) The DBTRG-O5MG (Denver Brain Tumor Research Group 05) cell line was established from tissue from a patient with glioblastoma multiforme who had been treated with local brain irradiation and multi drug chemotherapy (Kruse C A, et al. 1992 In vitro Cell Dev Biol, 28A(9-10):609-14). U87 is a commonly studied and thoroughly characterized grade IV glioma cell line derived from malignant glioma (Clark M J, et al, 2010 Plos Genet. 6(1):e1000832.). T98G is a glioblastoma multiforme cell line extracted from a person (Stein G H, 1979, J. Cell Physiol, 99(1):43-54). Proliferation and survival were assessed following TAT-ICD or control peptide (Table 29) or the P1-WD or control peptide treatment using the MTT assay as described above. Data are relative absorption; mean and standard deviation.

[2] = tested on: DBTRG GBM cells; test: MTT survival assay, DBTRG GBM cells; format: cell-based, human
Method: as §1

[3] = tested on: Hbb^th3/+ mice (β-thalassemia model)
[4] = tested on: COS7 cells; test: MTT assay, COS7 cells; format: cell-based
[5] = tested on: Hbb^th3/+ mice (β-thalassemia model); test: hematological parameters and red cell indices in β-thalassemic and wild-type mice; format: in vivo, mouse; design: CH (hemoglobin concentration): unit not given here; details: TAT-ICD 5 mg/kg i.p. once every other day for 3 weeks
Method: Wild-type C57BL/6J mice and the mouse model for β-thalassemia (designated as Hbb^th3/+) were used for these studies. Flow cytometric analysis and sorting of mouse bone marrow and spleen precursors were performed using standard protocols using markers for CD44 and TER119 and cell size (forward scatter) to distinguish erythroid precursors at each distinct developmental stage. Forward scatter high-CD44+Ter119+ cells represents total erythroblasts (or erythroid mass in bone marrow or spleen). These erythroblasts can be further analyzed and sorted in subpopulations: population I: pro-erythroblasts; population II: basophilic erythroblasts; population III: polychromatic erythroblasts; population IV: orthochromatic erythroblasts, as described in Matte et al 2015, Antioxid. Redox Signal. 2015 23(16):1284-1297. Population II, III and IV corresponding to basophilic erythroblasts, polychromatic erythroblasts and orthochromatic erythroblasts were sorted from bone marrow as previously described (Matte et al 2015 Antioxid. Redox Signal. 2015 23(16):1284-1297).
Wild-type and Hbb^3th/+ were treated with TAT-ICD at 5 mg/kg i.p once every other day for 3 weeks. […] Hematological parameters, red blood cell indices and reticulocyte counts were determined using standard procedures. Table 37 summarizes the effect of treatment of WT and HBB mice with TAT-ICD9 on key hematological parameters and red cell indices.

TAT-ICD: fusion recombinant protein SEQ ID 5: PTPRG intracellular domain aa 797-1445 fused to 13 aa TAT sequence
MTT relative absorption ([1]; 0.1 μM, 24 hours, CTRL 1200): 1070
MTT relative absorption ([1]; 0.1 μM, 48 hours, CTRL 1200): 1167
MTT relative absorption ([1]; 0.1 μM, 72 hours, CTRL 1336): 813
MTT relative absorption ([1]; 0.25 μM, 24 hours, CTRL 1200): 1069
MTT relative absorption ([1]; 0.25 μM, 48 hours, CTRL 1200): 1062
MTT relative absorption ([1]; 0.25 μM, 72 hours, CTRL 1336): 650
MTT relative absorption ([1]; 0.5 μM, 24 hours, CTRL 1200): 1000
MTT relative absorption ([1]; 0.5 μM, 48 hours, CTRL 1200): 977
MTT relative absorption ([1]; 0.5 μM, 72 hours, CTRL 1336): 650
MTT relative absorption ([2]; 0.3 μM, 24 hours, Control 941): 772
MTT relative absorption ([2]; 0.3 μM, 48 hours, Control 1274): 770
MTT relative absorption ([2]; 0.3 μM, 72 hours, Control 1667): 1243
MTT relative absorption ([2]; 0.5 μM, 24 hours, Control 941): 773
MTT relative absorption ([2]; 0.5 μM, 48 hours, Control 1274): 623
MTT relative absorption ([2]; 0.5 μM, 72 hours, Control 1667): 1022
MTT relative absorption ([2]; 1.0 μM, 24 hours, Control 941): 669
MTT relative absorption ([2]; 1.0 μM, 48 hours, Control 1274): 577
MTT relative absorption ([2]; 1.0 μM, 72 hours, Control 1667): 712
red cell morphology ([3]; Hbb^th3/+ mice): ameliorated red cell morphological abnormalities
red cell morphology ([3]; mouse, in vivo): without any changes
mean absorbance in the MTT assay ([4]; 0.1 μM, 24 hours, CTRL 700): 674
mean absorbance in the MTT assay ([4]; 0.1 μM, 48 hours, CTRL 1267): 1391
mean absorbance in the MTT assay ([4]; 0.1 μM, 72 hours, CTRL 1500): 1481
mean absorbance in the MTT assay ([4]; 0.25 μM, 24 hours, CTRL 700): 684
mean absorbance in the MTT assay ([4]; 0.25 μM, 48 hours, CTRL 1267): 1289
mean absorbance in the MTT assay ([4]; 0.25 μM, 72 hours, CTRL 1500): 1489
mean absorbance in the MTT assay ([4]; 0.5 μM, 24 hours, CTRL 700): 694
mean absorbance in the MTT assay ([4]; 0.5 μM, 48 hours, CTRL 1267): 1295
mean absorbance in the MTT assay ([4]; 0.5 μM, 72 hours, CTRL 1500): 1461
CH (hemoglobin concentration) ([5]; Hbb3th/+ mice, n = 4): 10.4 ± 0.3
CHr (reticulocyte hemoglobin concentration) ([5]; Hbb3th/+ mice, n = 4): 12.0 ± 0.39 pg
Hb (hemoglobin) ([5]; Hbb3th/+ mice, n = 4): 10.1 ± 0.3 g/dL
Hct (hematocrit) ([5]; Hbb3th/+ mice, n = 4): 34.8 ± 4.9 %
MCH (mean corpuscular hemoglobin) ([5]; Hbb3th/+ mice, n = 4): 10.2 ± 0.4 pg
MCV (mean corpuscular volume) ([5]; Hbb3th/+ mice, n = 4): 393 ± 0.9 fL
MCVr (mean corpuscular volume reticulocytes) ([5]; Hbb3th/+ mice, n = 4): 49.2 ± 1.2 fL
Neutrophil ([5]; Hbb3th/+ mice, n = 4): 1407 ± 597 cells/uL
RDW (red cell distribution width) ([5]; Hbb3th/+ mice, n = 4): 25.7 ± 1.0 %
Retics (reticulocytes) ([5]; Hbb3th/+ mice, n = 4): 18.2 ± 2.0 %
WBC ([5]; Hbb3th/+ mice, n = 4): 9125 ± 1021 cells/uL
CH (hemoglobin concentration) ([5]; WT mice, n = 3): 13.6 ± 0.2
CHr (reticulocyte hemoglobin concentration) ([5]; WT mice, n = 3): 14.0 ± 0.1 pg
Hb (hemoglobin) ([5]; WT mice, n = 3): 14.9 ± 0.4 g/dL
Hct (hematocrit) ([5]; WT mice, n = 3): 46.3 ± 0.5%
MCH (mean corpuscular hemoglobin) ([5]; WT mice, n = 3): 15.0 ± 0.7 pg
MCV (mean corpuscular volume) ([5]; WT mice, n = 3): 50.1 ± 0.1 fL
MCVr (mean corpuscular volume reticulocytes) ([5]; WT mice, n = 3): 55.0 ± 0.3 fL
Neutrophil ([5]; WT mice, n = 3): 1833 ± 461 cells/uL
RDW (red cell distribution width) ([5]; WT mice, n = 3): 13.6 ± 0.3 %
Retics (reticulocytes) ([5]; WT mice, n = 3): 4.3 ± 0.5 %
WBC ([5]; WT mice, n = 3): 6005 ± 980 cells/uL

TAT (GRKKRRQRRRPPQ; listed as Homo sapiens) [reference compound]
MTT relative absorption ([1]; 0.1 μM, 24 hours, CTRL 1200): 1200
MTT relative absorption ([1]; 0.1 μM, 48 hours, CTRL 1200): 1018
MTT relative absorption ([1]; 0.1 μM, 72 hours, CTRL 1336): 1343
MTT relative absorption ([1]; 0.25 μM, 24 hours, CTRL 1200): 1195
MTT relative absorption ([1]; 0.25 μM, 48 hours, CTRL 1200): 950
MTT relative absorption ([1]; 0.25 μM, 72 hours, CTRL 1336): 1200
MTT relative absorption ([1]; 0.5 μM, 24 hours, CTRL 1200): 1160
MTT relative absorption ([1]; 0.5 μM, 48 hours, CTRL 1200): 900
MTT relative absorption ([1]; 0.5 μM, 72 hours, CTRL 1336): 1235
MTT relative absorption ([2]; 0.3 μM, 24 hours, Control 941): 711
MTT relative absorption ([2]; 0.3 μM, 48 hours, Control 1274): 1031
MTT relative absorption ([2]; 0.3 μM, 72 hours, Control 1667): 1583
MTT relative absorption ([2]; 0.5 μM, 24 hours, Control 941): 826
MTT relative absorption ([2]; 0.5 μM, 48 hours, Control 1274): 1061
MTT relative absorption ([2]; 0.5 μM, 72 hours, Control 1667): 1591
MTT relative absorption ([2]; 1.0 μM, 24 hours, Control 941): 792
MTT relative absorption ([2]; 1.0 μM, 48 hours, Control 1274): 1005
MTT relative absorption ([2]; 1.0 μM, 72 hours, Control 1667): 1275
mean absorbance in the MTT assay ([4]; 0.1 μM, 24 hours, CTRL 700): 649
mean absorbance in the MTT assay ([4]; 0.1 μM, 48 hours, CTRL 1267): 1320
mean absorbance in the MTT assay ([4]; 0.1 μM, 72 hours, CTRL 1500): 1495
mean absorbance in the MTT assay ([4]; 0.25 μM, 24 hours, CTRL 700): 624
mean absorbance in the MTT assay ([4]; 0.25 μM, 48 hours, CTRL 1267): 1250
mean absorbance in the MTT assay ([4]; 0.25 μM, 72 hours, CTRL 1500): 1388
mean absorbance in the MTT assay ([4]; 0.5 μM, 24 hours, CTRL 700): 650
mean absorbance in the MTT assay ([4]; 0.5 μM, 48 hours, CTRL 1267): 1289
mean absorbance in the MTT assay ([4]; 0.5 μM, 72 hours, CTRL 1500): 1341
